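In this assay, cells in 96-well plates receive the compound at five concentrations for 48 hours. Endpoints are linearly interpolated between the surrounding concentrations. Here, GI50 denotes the concentration required for 50% inhibition of growth. TGI: concentration producing complete growth inhibition.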
Experiments:
Experiment in all cases: inhibition of tumour cell growth, NCI panel, 48 h
RPMI-8226 leukemia = system: RPMI-8226 leukemia
SF-268 CNS = system: SF-268 CNS
NCI-H460 lung = system: NCI-H460 lung
MDA-MB-231 breast = system: MDA-MB-231 breast
SNB-19 CNS = system: SNB-19 CNS
A498 renal = system: A498 renal
OVCAR-3 ovarian = system: OVCAR-3 ovarian
CCRF-CEM leukemia = system: CCRF-CEM leukemia
HCT-15 colon = system: HCT-15 colon
SK-OV-3 ovarian = system: SK-OV-3 ovarian
SK-MEL-28 melanoma = system: SK-MEL-28 melanoma
SR leukemia = system: SR leukemia
COLO 205 colon = system: COLO 205 colon
SNB-75 CNS = system: SNB-75 CNS
UO-31 renal = system: UO-31 renal
IGROV1 ovarian = system: IGROV1 ovarian
UACC-257 melanoma = system: UACC-257 melanoma
EKVX NSCLC = system: EKVX NSCLC
ACHN renal = system: ACHN renal
BT-549 breast = system: BT-549 breast
786-0 renal = system: 786-0 renal
UACC-62 melanoma = system: UACC-62 melanoma
NCI-H522 lung = system: NCI-H522 lung
KM12 colon = system: KM12 colon
NCI-H226 lung = system: NCI-H226 lung
SK-MEL-5 melanoma = system: SK-MEL-5 melanoma
K-562 leukemia = system: K-562 leukemia
OVCAR-8 ovarian = system: OVCAR-8 ovarian
SK-MEL-2 melanoma = system: SK-MEL-2 melanoma
HT29 colon = system: HT29 colon
HL-60(TB) leukemia = system: HL-60(TB) leukemia
SF-539 CNS = system: SF-539 CNS
TK-10 renal = system: TK-10 renal
MALME-3M melanoma = system: MALME-3M melanoma
M14 melanoma = system: M14 melanoma
CAKI-1 renal = system: CAKI-1 renal
NCI/ADR-RES ovarian = system: NCI/ADR-RES ovarian
HOP-62 NSCLC = system: HOP-62 NSCLC
HS 578T breast = system: HS 578T breast
RXF 393 renal = system: RXF 393 renal
OVCAR-4 ovarian = system: OVCAR-4 ovarian
PC-3 prostate = system: PC-3 prostate
SW-620 colon = system: SW-620 colon
OVCAR-5 ovarian = system: OVCAR-5 ovarian
MCF7 breast = system: MCF7 breast
MDA-MB-435 = system: MDA-MB-435
SF-295 CNS = system: SF-295 CNS
U251 CNS = system: U251 CNS
HOP-92 NSCLC = system: HOP-92 NSCLC
MOLT-4 leukemia = system: MOLT-4 leukemia
HCC-2998 colon = system: HCC-2998 colon
NCI-H23 lung = system: NCI-H23 lung
T-47D breast = system: T-47D breast
A549 NSCLC = system: A549 NSCLC
LOX IMVI melanoma = system: LOX IMVI melanoma
SN12C renal = system: SN12C renal
DU-145 prostate = system: DU-145 prostate
HCT-116 colon = system: HCT-116 colon

`Cc1ccc(-c2nc3nc(-c4ccc(Br)cc4)nc(N4CCCNCC4)c3o2)cc1` gave a GI50 (RPMI-8226 leukemia) of 2.58 µM, a TGI (RPMI-8226 leukemia) of 6.63 µM and a GI50 (SF-268 CNS) of 3.63 µM. The TGI (SF-268 CNS) was 15.2 µM, the GI50 (NCI-H460 lung) was 1.9 µM and the TGI (NCI-H460 lung) was 3.61 µM. It also gave a GI50 (MDA-MB-231 breast) of 1.93 µM, a TGI (MDA-MB-231 breast) of 4.05 µM and a GI50 (SNB-19 CNS) of 14.1 µM. It also gave a TGI (SNB-19 CNS) of 27.6 µM, a GI50 (A498 renal) of 13.9 µM and a TGI (A498 renal) of 27.5 µM. For the same molecule, the GI50 (OVCAR-3 ovarian) was 1.84 µM, the TGI (OVCAR-3 ovarian) was 3.36 µM and the GI50 (CCRF-CEM leukemia) was 2.35 µM. It also gave a TGI (CCRF-CEM leukemia) of 5.57 µM, a GI50 (HCT-15 colon) of 1.72 µM and a TGI (HCT-15 colon) of 3.25 µM. It also gave a GI50 (SK-OV-3 ovarian) of 17.5 µM, a TGI (SK-OV-3 ovarian) of 33.4 µM and a GI50 (SK-MEL-28 melanoma) of 17.4 µM. For the same molecule, the TGI (SK-MEL-28 melanoma) was 31.8 µM, the GI50 (SR leukemia) was 1.78 µM and the TGI (SR leukemia) was 4.4 µM. For the same molecule, the GI50 (COLO 205 colon) was 5.56 µM, the TGI (COLO 205 colon) was 20.2 µM and the GI50 (SNB-75 CNS) was 10.5 µM. For the same molecule, the TGI (SNB-75 CNS) was 22.4 µM, the GI50 (UO-31 renal) was 2.12 µM and the TGI (UO-31 renal) was 7.04 µM. It also gave a GI50 (IGROV1 ovarian) of 1.84 µM, a TGI (IGROV1 ovarian) of 3.61 µM and a GI50 (UACC-257 melanoma) of 18.2 µM. For the same molecule, the TGI (UACC-257 melanoma) was 39.7 µM, the GI50 (EKVX NSCLC) was 13.8 µM and the TGI (EKVX NSCLC) was 28.4 µM. It also gave a GI50 (ACHN renal) of 1.91 µM, a TGI (ACHN renal) of 3.59 µM and a GI50 (BT-549 breast) of 16 µM. For the same molecule, the TGI (BT-549 breast) was 34.6 µM, the GI50 (786-0 renal) was 3.95 µM and the TGI (786-0 renal) was 16 µM. The GI50 (UACC-62 melanoma) was 17 µM, the TGI (UACC-62 melanoma) was 31.9 µM and the GI50 (NCI-H522 lung) was 1.86 µM. For the same molecule, the TGI (NCI-H522 lung) was 4.5 µM, the GI50 (KM12 colon) was 1.93 µM and the TGI (KM12 colon) was 3.82 µM. The GI50 (NCI-H226 lung) was 17 µM, the TGI (NCI-H226 lung) was 38.9 µM and the GI50 (SK-MEL-5 melanoma) was 16.7 µM. It also gave a TGI (SK-MEL-5 melanoma) of 31.6 µM, a GI50 (K-562 leukemia) of 2.31 µM and a TGI (K-562 leukemia) of 4.98 µM. It also gave a GI50 (OVCAR-8 ovarian) of 2.28 µM, a TGI (OVCAR-8 ovarian) of 5.28 µM and a GI50 (SK-MEL-2 melanoma) of 18.5 µM. It also gave a TGI (SK-MEL-2 melanoma) of 36.3 µM, a GI50 (HT29 colon) of 1.86 µM and a TGI (HT29 colon) of 3.54 µM. It also gave a GI50 (HL-60(TB) leukemia) of 1.99 µM, a TGI (HL-60(TB) leukemia) of 4.07 µM and a GI50 (SF-539 CNS) of 3.27 µM. It also gave a TGI (SF-539 CNS) of 11.4 µM, a GI50 (TK-10 renal) of 20 µM and a TGI (TK-10 renal) of 34.8 µM. It also gave a GI50 (MALME-3M melanoma) of 15.4 µM, a TGI (MALME-3M melanoma) of 30.1 µM and a GI50 (M14 melanoma) of 4.64 µM. For the same molecule, the TGI (M14 melanoma) was 18.1 µM, the GI50 (CAKI-1 renal) was 1.58 µM and the TGI (CAKI-1 renal) was 2.92 µM. For the same molecule, the GI50 (NCI/ADR-RES ovarian) was 2.2 µM, the TGI (NCI/ADR-RES ovarian) was 4.58 µM and the GI50 (HOP-62 NSCLC) was 15.8 µM. For the same molecule, the TGI (HOP-62 NSCLC) was 35.1 µM, the GI50 (HS 578T breast) was 17.2 µM and the TGI (HS 578T breast) was 37.1 µM. The GI50 (RXF 393 renal) was 13.7 µM, the TGI (RXF 393 renal) was 27.5 µM and the GI50 (OVCAR-4 ovarian) was 7.2 µM. It also gave a TGI (OVCAR-4 ovarian) of 21 µM, a GI50 (PC-3 prostate) of 2.48 µM and a TGI (PC-3 prostate) of 7.52 µM. It also gave a GI50 (SW-620 colon) of 1.84 µM, a TGI (SW-620 colon) of 3.57 µM and a GI50 (OVCAR-5 ovarian) of 16.3 µM. It also gave a TGI (OVCAR-5 ovarian) of 30 µM, a GI50 (MCF7 breast) of 1.78 µM and a TGI (MCF7 breast) of 3.51 µM. It also gave a GI50 (MDA-MB-435) of 1.88 µM, a TGI (MDA-MB-435) of 3.74 µM and a GI50 (SF-295 CNS) of 17.9 µM. The TGI (SF-295 CNS) was 33 µM, the GI50 (U251 CNS) was 1.77 µM and the TGI (U251 CNS) was 3.45 µM. For the same molecule, the GI50 (HOP-92 NSCLC) was 12.7 µM, the TGI (HOP-92 NSCLC) was 29.5 µM and the GI50 (MOLT-4 leukemia) was 2.08 µM. For the same molecule, the TGI (MOLT-4 leukemia) was 4.14 µM, the GI50 (HCC-2998 colon) was 15.4 µM and the TGI (HCC-2998 colon) was 30.2 µM. It also gave a GI50 (NCI-H23 lung) of 17.1 µM, a TGI (NCI-H23 lung) of 34.9 µM and a GI50 (T-47D breast) of 3.06 µM. The TGI (T-47D breast) was 13.9 µM, the GI50 (A549 NSCLC) was 1.96 µM and the TGI (A549 NSCLC) was 4.04 µM. It also gave a GI50 (LOX IMVI melanoma) of 1.76 µM, a TGI (LOX IMVI melanoma) of 3.34 µM and a GI50 (SN12C renal) of 10.5 µM. It also gave a TGI (SN12C renal) of 23.7 µM, a GI50 (DU-145 prostate) of 1.92 µM and a TGI (DU-145 prostate) of 3.55 µM. The GI50 (HCT-116 colon) was 1.82 µM and the TGI (HCT-116 colon) was 3.36 µM.

— PubChem BioAssay (NCI)
